In the test the test system is 2,5DHP dioxygenase (PicD). The test can be described thus: spectrophotometric […],5DHP disappearance at […] nm. As to conditions: 1 mM Fe2+; 50 mM PBS pH 7.0; 25 °C. It is filed as biochemical, Alcaligenes faecalis.

In general, Km refers to the concentration of substrate that gives half-maximal velocity. Consider `Oc1ccc(O)nc1` [2,5DHP, 2,5-dihydroxypyridine], for which the Km is 65.7 ± 6.27 µM.

The values are drawn from publication doi:10.1101/530550v1 (biorxiv, 2019).
